Test results taken from patent US20220241214A1, “NAN[…] W METHIDES AND COMPOSITIONS FOR USE” (priority 2019, published 2022).
Where two headings read alike, the source gives them in different places.

Tests used:
[1] = previous reported; cited from earlier work
[2] = system: PDX1 tumors; assay: Patient-derived xenograft (PDX1) model of endometrial cancer, tumor growth; format: in vivo; details: PDX1 mice, twice a week for 4 weeks; compared to control PLGA nanoparticles (combination: compared to all other groups)
Description: Patient-derived xenograft (PDX) studies: A PDX model of endometrial cancer (PDX1) has been previously described (Luo et al., 2010). NOD.Cg-Prkdcscid Il2rgtm1Wjl/SzJ (NSG, Jackson Laboratories, Bar Harbor, Me.) immunodeficient female mice at 8 weeks of age were injected with passage 3 of PDX1 tumor tissue (10 mg/100 μl medium) into the right flank subcutaneously. The mice were randomly divided into 4 groups, with 5 mice per drug treated group, and 4 mice comprised the empty nanoparticle control group. Treatment was started on day 15 after engraftment of cells. The dose of pristimerin delivered in nanoparticles was 60 μg for each mouse and was administered by intravenous injection (IV) injection twice a week for a total of 4 weeks. The dose of cisplatin was […] for each mouse and was administered by intraperitoneal (IP) injection twice a week for a total of 4 weeks. After 2 weeks of treatment, tumors were measured weekly using calipers, and volumes were calculated using the formula length×width^2/2.
All animal studies were performed under animal protocols #7051085 approved by the University of Iowa Institutional Animal Care and Use Committee (Iowa City, Iowa). MTDH knockout mice were generated as described previously (Meng et al., 2015). […] After 2 weeks of treatment, tumors were measured weekly using calipers, and volumes were calculated using the formula […].

[3] = system: Hec50 cells; assay: Cell viability by WST-1 assay in Hec50 cells; format: cell-based; details: pristimerin 72 hours
Description: (§1) Cell viability was determined by WST-1 assay. Cells were seeded into 96-well plates (1×10^4 cells per well) then treated with cisplatin (Fresenius Kabi Oncology Ltd, Haryana, India) or the combination of cisplatin with pristimerin in solution (Cayman Chemical, Ann Arbor, Mich.). Cell viability was evaluated using the cell proliferation reagent WST-1 (Roche, Germany) according to the manufacturer's protocol. The absorbance was measured with a micro-plate reader (BioRad). Data were calculated as percent (%) viability relative to untreated control, which was set at 100%.
as §1, with “Ltd.,” for “Ltd,”, “Absorbance” for “The absorbance”, “microplate” for “micro-plate”

[4] = system: MDA-MB-231 cells; assay: Cell viability by WST-1 assay in MDA-MB-231 cells; format: cell-based; details: Homo sapiens, pristimerin 72 hours
Description: as §1
as §1, with “Ltd.,” for “Ltd,”, “Absorbance” for “The absorbance”, “microplate” for “micro-plate”

[5] = system: KLE cells; assay: Cell viability by WST-1 assay in KLE cells; format: cell-based; details: Homo sapiens, pristimerin 72 hours
Description: as §1
as §1, with “Ltd.,” for “Ltd,”, “Absorbance” for “The absorbance”, “microplate” for “micro-plate”

[6] = biological target: P-glycoprotein (P-gp) efflux transporter (Homo sapiens, UniProt P08183); details: not told; cited from earlier work
[7] = Solubility and pharmacokinetics (statement); details: pristimerin in solution

P-glycoprotein (P-gp) efflux transporter, sequence (P08183 whole entry): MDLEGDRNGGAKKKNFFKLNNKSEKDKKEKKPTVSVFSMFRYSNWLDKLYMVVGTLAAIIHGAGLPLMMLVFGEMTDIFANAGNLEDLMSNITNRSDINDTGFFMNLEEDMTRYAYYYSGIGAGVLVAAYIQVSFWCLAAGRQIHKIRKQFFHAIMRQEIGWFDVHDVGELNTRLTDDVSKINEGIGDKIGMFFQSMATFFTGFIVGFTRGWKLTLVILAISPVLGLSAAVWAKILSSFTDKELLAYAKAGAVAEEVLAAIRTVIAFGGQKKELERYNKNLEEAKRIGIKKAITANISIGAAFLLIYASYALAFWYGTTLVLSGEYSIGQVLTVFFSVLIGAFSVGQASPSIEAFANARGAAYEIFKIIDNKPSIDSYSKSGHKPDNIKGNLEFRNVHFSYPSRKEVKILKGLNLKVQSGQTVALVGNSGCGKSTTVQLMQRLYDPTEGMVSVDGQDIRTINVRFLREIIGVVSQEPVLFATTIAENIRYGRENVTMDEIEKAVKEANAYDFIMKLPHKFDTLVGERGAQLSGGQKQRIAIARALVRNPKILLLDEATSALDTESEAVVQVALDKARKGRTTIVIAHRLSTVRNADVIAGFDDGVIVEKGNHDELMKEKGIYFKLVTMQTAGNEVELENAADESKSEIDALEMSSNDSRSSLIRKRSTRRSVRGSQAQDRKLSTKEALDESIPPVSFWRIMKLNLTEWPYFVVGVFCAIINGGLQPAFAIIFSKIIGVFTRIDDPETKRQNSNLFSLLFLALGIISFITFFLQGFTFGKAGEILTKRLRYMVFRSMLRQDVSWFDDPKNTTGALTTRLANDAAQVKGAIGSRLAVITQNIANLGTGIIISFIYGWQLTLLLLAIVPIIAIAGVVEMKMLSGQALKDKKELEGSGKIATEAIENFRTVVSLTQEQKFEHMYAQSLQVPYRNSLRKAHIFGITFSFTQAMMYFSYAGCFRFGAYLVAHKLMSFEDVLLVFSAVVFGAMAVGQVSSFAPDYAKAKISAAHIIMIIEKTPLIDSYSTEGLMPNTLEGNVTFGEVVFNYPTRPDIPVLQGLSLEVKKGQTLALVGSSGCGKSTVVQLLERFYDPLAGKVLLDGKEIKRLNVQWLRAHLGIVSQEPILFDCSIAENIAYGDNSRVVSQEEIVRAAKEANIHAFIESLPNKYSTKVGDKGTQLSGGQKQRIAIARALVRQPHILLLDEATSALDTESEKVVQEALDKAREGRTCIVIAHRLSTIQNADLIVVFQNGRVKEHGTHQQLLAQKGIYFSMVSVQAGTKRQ

In the case of `CC1=C(O)C(=O)C=C2C1=CC=C1[C@@]2(C)CC[C@@]2(C)[C@@H]3C[C@](C)(C(=O)O)CC[C@]3(C)CC[C@]12C` [celastrol], the solubility and pharmacokinetics [1] is listed as “poor”.

For `N.N.[Cl][Pt][Cl]` [cisplatin], the tumor growth [2] was “significantly inhibited”.

With `COC(=O)[C@]1(C)CC[C@]2(C)CC[C@]3(C)C4=CC=C5C(=CC(=O)C(O)=C5C)[C@]4(C)CC[C@@]3(C)[C@@H]2C1` [pristimerin, Pristimerin] the IC50 [3] was < 1 µM, the IC50 [4] was < 1 µM and the IC50 [5] was < 1 µM. The “substrate to P-gp” value [6] was “substrate” and the solubility and pharmacokinetics [7] was “poor”.
